Data: US9296745B2, “Diacylglycerol acyltransferase 2 inhibitors” (Pfizer Inc., priority 2012, dated 2016)

Molecular target: Human DGAT2 (hDGAT2) (Homo sapiens (Human), UniProt Q96PD7)
Test: In vitro DGAT2 assay, IC50 determination with hDGAT2 membrane fraction
Type: biochemical
Settings: geometric mean; background for complete inhibition of DGAT2 obtained with 50 μM (1R,2R)-2-({3′-Fluoro-4′-[(6-fluoro-1,3-benzothiazol-2-yl)amino]-1,1′-biphenyl-4-yl}carbonyl)cyclopentanecarboxylic acid; read-out: DGAT2 IC50
Method in brief: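 CHAPS-solubilized membrane fraction of FLAG-tagged hDGAT2 from baculovirus-infected SF9 cells (0.01 mg/mL) in 100 mM Hepes-NaOH pH 7.4, 20 mM MgCl2, 200 nM methyl arachidonyl fluorophosphonate; compounds pre-incubated 20 min with 0.04% BSA. Reaction 40 min at room temperature, stopped with H3PO4. [^14C]tridecanoylglycerol in organic phase counted; 11-point geometric mean IC50.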

Chain of Human DGAT2 (hDGAT2) (Q96PD7 whole entry): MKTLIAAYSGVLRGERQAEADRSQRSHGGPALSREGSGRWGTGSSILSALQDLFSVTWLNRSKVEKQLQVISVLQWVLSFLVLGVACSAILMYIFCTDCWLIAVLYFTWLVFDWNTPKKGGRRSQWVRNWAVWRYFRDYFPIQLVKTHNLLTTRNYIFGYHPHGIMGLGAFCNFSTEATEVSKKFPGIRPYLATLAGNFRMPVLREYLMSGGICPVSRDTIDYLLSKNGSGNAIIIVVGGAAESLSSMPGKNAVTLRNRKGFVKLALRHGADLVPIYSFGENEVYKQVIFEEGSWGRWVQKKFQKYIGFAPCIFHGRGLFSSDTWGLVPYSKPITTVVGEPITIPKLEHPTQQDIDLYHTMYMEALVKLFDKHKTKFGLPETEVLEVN

IC50 [nM] | Compound
34.4 | O=C([C@@H]1CCCN(c2ccc3nc(-c4ccnc(C5CC5)n4)[nH]c3n2)C1)N1CCC(F)(F)C1 [Example 131, (R)-(1-(2-(2-Cyclopropylpyrimidin-4-yl)-3H-imidazo[4,5-b]pyridin-5-yl)piperidin-3-yl)(3,3-difluoropyrrolidin-1-yl)methanone]
695 | O=C([C@@H]1CCCN(c2ccc3nc(-c4ccnc(C5CC5)n4)[nH]c3n2)C1)N1CC[C@H](O)C1 [Example 132, ((R)-1-(2-(2-Cyclopropylpyrimidin-4-yl)-3H-imidazo[4,5-b]pyridin-5-yl)piperidin-3-yl)((S)-3-hydroxypyrrolidin-1-yl)methanone]
252 | c1cc(-c2nc3ccc(N4CCCC(c5ncc6n5CCC6)C4)nc3[nH]2)nc(C2CC2)n1 (stereo not drawn) [Example 133, 2-(2-Cyclopropylpyrimidin-4-yl)-5-(3-(6,7-dihydro-5H-pyrrolo[1,2-c]imidazol-3-yl)piperidin-1-yl)-3H-imidazo[4,5-b]pyridine]
210 | c1cc(-c2nc3ccc(N4CCC[C@@H](c5ncc6n5CCC6)C4)nc3[nH]2)nc(C2CC2)n1 [Example 134, (R)-2-(2-Cyclopropylpyrimidin-4-yl)-5-(3-(6,7-dihydro-5H-pyrrolo[1,2-c]imidazol-3-yl)piperidin-1-yl)-3H-imidazo[4,5-b]pyridine]
4240 | c1cc(-c2nc3ccc(N4CCC[C@H](c5ncc6n5CCC6)C4)nc3[nH]2)nc(C2CC2)n1 [Example 135, (S)-2-(2-cyclopropylpyrimidin-4-yl)-5-(3-(6,7-dihydro-5H-pyrrolo[1,2-c]imidazol-3-yl)piperidin-1-yl)-3H-imidazo[4,5-b]pyridine]
6.32 | O=C([C@@H]1CCCN(c2nc3[nH]c(-c4ccnc(C5CC5)n4)nc3cc2F)C1)N1CCCC1 [Example 136, (R)-(1-(2-(2-Cyclopropylpyrimidin-4-yl)-6-fluoro-3H-imidazo[4,5-b]pyridin-5-yl)piperidin-3-yl)(pyrrolidin-1-yl)methanone]
1280 | O=C([C@@H]1CCCN(c2ccc3nc(C4(N5CCOCC5=O)CC4)[nH]c3n2)C1)N1CCCC1 [Example 137, (R)-4-(1-(5-(3-(Pyrrolidine-1-carbonyl)piperidin-1-yl)-3H-imidazo[4,5-b]pyridin-2-yl)cyclopropyl)morpholin-3-one]
71.6 | O=C([C@@H]1CCCN(c2cnc3nc(-c4ccnc(C5CC5)n4)[nH]c3n2)C1)N1CCCC1 [Example 138, (R)-(1-(2-(2-Cyclopropylpyrimidin-4-yl)-1H-imidazo[4,5-b]pyrazin-6-yl)piperidin-3-yl)(pyrrolidin-1-yl)methanone]
62.3 | O=C([C@@H]1CCCN(c2ccc3nc(-c4cccc(C5(O)CC5)n4)[nH]c3n2)C1)N1CCCC1 [Example 139, (R)-(1-(2-(6-(1-Hydroxycyclopropyl)pyridin-2-yl)-3H-imidazo[4,5-b]pyridin-5-yl)piperidin-3-yl)(pyrrolidin-1-yl)methanone]
207 | CC(C)(O)c1csc(-c2nc3ccc(N4CCC[C@@H](C(=O)N5CCCC5)C4)nc3[nH]2)n1 [Example 140, (R)-(1-(2-(4-(2-Hydroxypropan-2-yl)thiazol-2-yl)-3H-imidazo[4,5-b]pyridin-5-yl)piperidin-3-yl)(pyrrolidin-1-yl)methanone]
24.8 | O=C([C@H]1CN(c2ccc3nc(-c4cccc(C5CC5)n4)[nH]c3n2)CCO1)N1CCCC1 [Example 142, (R)-(4-(2-(6-Cyclopropylpyridin-2-yl)-3H-imidazo[4,5-b]pyridin-5-yl)morpholin-2-yl)(pyrrolidin-1-yl)methanone]
511 | O=C([C@H]1CN(c2ccc3nc(-c4cccc(C(F)(F)F)n4)[nH]c3n2)CCO1)N1CCCC1 [Example 143, (R)-Pyrrolidin-1-yl(4-(2-(6-(trifluoromethyl)pyridin-2-yl)-3H-imidazo[4,5-b]pyridin-5-yl)morpholin-2-yl)methanone]
